Results taken from patent publication US5747301A, “D-sorbitol dehydrogenase” (Roche Vitamins Inc., priority 1995, dated 1998).
Counter-ions that a name gives are not always drawn. Like-named read-outs stand apart in the source and are kept apart here.

Experiments:
[1] = target: T1, D-sorbitol dehydrogenase (SLDH) (Gluconobacter thailandicus, UniProt Q8KIL1); experiment: Effects of metal ions and inhibitors on the SLDH activity; format: biochemical, Gluconobacter suboxydans IFO 3255; design: The SLDH was isolated from the membrane fraction of Gluconobacter suboxydans IFO 3255 (DSM 9715); made in house; host or cells: Gluconobacter suboxydans IFO 3255 (DSM 9715), native source (not recombinant): purified from the solubilized membrane fraction; details: for activity at 960 µM / activity at 1890 µM: read-out: Relative activity (%); for effect on SLDH activity: addition of 0.91 mM
T1 sequence (Q8KIL1 30-740): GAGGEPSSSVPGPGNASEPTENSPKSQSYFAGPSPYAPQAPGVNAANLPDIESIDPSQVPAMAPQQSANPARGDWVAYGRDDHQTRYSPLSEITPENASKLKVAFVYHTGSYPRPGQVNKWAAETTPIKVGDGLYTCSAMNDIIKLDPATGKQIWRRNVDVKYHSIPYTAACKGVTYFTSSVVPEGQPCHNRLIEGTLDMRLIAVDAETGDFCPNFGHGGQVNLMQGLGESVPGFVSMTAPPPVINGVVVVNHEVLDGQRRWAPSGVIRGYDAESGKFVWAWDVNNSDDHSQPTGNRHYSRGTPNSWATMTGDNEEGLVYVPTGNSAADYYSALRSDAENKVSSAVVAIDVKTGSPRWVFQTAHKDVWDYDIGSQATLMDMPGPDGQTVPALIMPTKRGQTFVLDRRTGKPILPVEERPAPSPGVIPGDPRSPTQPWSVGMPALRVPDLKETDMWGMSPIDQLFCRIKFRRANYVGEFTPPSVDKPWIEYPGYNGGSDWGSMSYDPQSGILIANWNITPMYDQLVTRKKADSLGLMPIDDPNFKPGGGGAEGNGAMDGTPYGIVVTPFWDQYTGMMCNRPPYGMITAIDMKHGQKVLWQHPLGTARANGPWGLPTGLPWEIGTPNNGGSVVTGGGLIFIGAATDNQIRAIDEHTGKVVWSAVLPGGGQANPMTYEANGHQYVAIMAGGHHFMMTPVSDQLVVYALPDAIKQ

[2] = target: T1, D-sorbitol dehydrogenase (SLDH); experiment: Substrate specificity of the purified D-sorbitol dehydrogenase (DCIP reduction enzyme assay); format: biochemical, Gluconobacter suboxydans IFO 3255; design: The SLDH was isolated from the membrane fraction of Gluconobacter suboxydans IFO 3255 (DSM 9715); made in house; host or cells: Gluconobacter suboxydans IFO 3255 (DSM 9715), native source (not recombinant): purified from the solubilized membrane fraction; details: for activity at 100000 µM: read-out: Relative activity
[3] = target: T1, D-sorbitol dehydrogenase (SLDH); details: conversion of D-sorbitol to L-sorbose
[4] = tested on: membrane-bound D-sorbitol dehydrogenase; details: Shinagawa et al. enzyme; cited from earlier work
[5] = substrate: OC[C@@H](O)[C@@H](O)[C@H](O)[C@@H](O)CO; experiment: Effects of substrate concentration on reaction rate (Km); format: biochemical, Gluconobacter suboxydans IFO 3255; details: other: D-sorbitol 0.5 to 80 mM; DCIP as electron acceptor
Description: The velocity of the oxidizing reaction on varying the concentration of D-sorbitol from 0.5 to 80 mM was measured to determine the Km value for D-sorbitol. The apparent Michaelis constant was calculated to be 18 mM with DCIP as an electron acceptor for the reaction.

[6] = metal 0.91 mM, percentage of the reaction rate without metal compounds
[7] = metal 1.79 mM, percentage of the reaction rate without metal compounds
[8] = inhibitor 0.96 mM, percentage of the reaction rate without inhibitors
[9] = inhibitor 1.89 mM, percentage of the reaction rate without inhibitors
[10] = substrate solutions 100 mM, percent of the reaction rate obtained with D-sorbitol

For `O.O.O.O.O.O.O.O=S(=O)([O-])[O-].[Zn+2]` [ZnSO4.7H2 O], the “Relative activity (%)” value [1, 6] was 44% and the “Relative activity (%)” value [1, 7] was 40%.

In the case of `C=C[C@H]1CN2CC[C@H]1C[C@H]2[C@H](O)c1ccnc2ccc(OC)cc12` [Quinine-HCl, quinine hydrochloride], the activity at 960 µM [1, 8] is reported as 79.2%, the activity at 1890 µM [1, 9] is reported as 75% and the “inhibitory by” value ([1]; inhibitors (Table 7)) is reported as 25%.

In the case of `O=C(CO)[C@@H](O)[C@H](O)[C@@H](O)CO` [L-Sorbose], the activity at 100000 µM [2, 10] is reported as 0%.

Work on `CCN1C(=O)C=CC1=O` [N-Ethylmaleimide] yielded an activity at 960 µM [1, 8] of 117% and an activity at 1890 µM [1] of 100%.

For `O=O` [oxygen], the “use as electron acceptor” value [3] was “does not utilize oxygen as an electron acceptor”.

In the case of `[Ca+2].[Cl-].[Cl-]` [CaCl2], the “Relative activity (%)” value [1, 6] is reported as 96% and the “Relative activity (%)” value [1, 7] is reported as 96%.

For `O.O.[Cl][Cu][Cl]` [CuCl2.2H2 O], the “Relative activity (%)” value [1, 6] was 0% and the “Relative activity (%)” value [1, 7] was 0%.

In the case of `O.O.[Na+].[Na+].[O]=[Mo](=[O])([O-])[O-]` [Na2 MoO4.2H2 O], the “Relative activity (%)” value [1, 6] is reported as 68% and the “Relative activity (%)” value [1, 7] is reported as 96%.

In the case of `O.O.O.O.O.O.[Cl-].[Cl-].[Co+2]` [CoCl2.6H2 O], the “Relative activity (%)” value [1, 6] is reported as 117% and the “Relative activity (%)” value [1, 7] is reported as 108%.

`O=C(O)CF` [Sodium fluoroacetate] gave an activity at 960 µM [1] of 104% and an activity at 1890 µM [1] of 108%.

In the case of `[Cl-].[Cl-].[Zn+2]` [ZnCl2], the “Relative activity (%)” value [1, 6] is reported as 56% and the “Relative activity (%)” value [1, 7] is reported as 32%.

For `OCC(O)CO` [Glycerol], the “oxidation by SLDH” value ([2]; substrate solutions 100 mM) was “highly oxidized” and the activity at 100000 µM [2, 10] was 117%.

For `OC[C@@H](O)[C@@H](O)[C@H](O)[C@@H](O)CO` [D-Sorbitol], the activity at 100000 µM [2] was 100% and the “oxidation by SLDH” value ([2]; substrate solutions 100 mM) was “highly oxidized”.

For `OC[C@@H](O)[C@@H](O)[C@H](O)[C@H](O)CO` [D-Mannitol], the activity at 100000 µM [2] is given as 49.9% and the “reaction rate relative to D-sorbitol” value [4] is given as 5%.

For `O.O.O.O=[N+]([O-])[O-].O=[N+]([O-])[O-].[Cu+2]` [Cu(NO3)2.3H2 O], the “Relative activity (%)” value [1, 6] was 0% and the “Relative activity (%)” value [1, 7] was 0%.

In the case of MnSO4.4~6H2 O, the “Relative activity (%)” value [1, 6] is reported as 88% and the “Relative activity (%)” value [1, 7] is reported as 88%.

In the case of `[F-].[Na+]` [Sodium fluoride], the “Relative activity (%)” value [1, 8] is reported as 100% and the “Relative activity (%)” value [1, 9] is reported as 100%.

For `OC[C@@H](O)[C@@H](O)CO` [meso-Erythritol], the “oxidation by SLDH” value ([2]; substrate solutions 100 mM) is listed as “highly oxidized”, the activity at 100000 µM [2, 10] is listed as 172% and the “oxidation by the enzyme” value [4] is listed as “did not oxidize”.

With `O=C(O)CI` [Monoiodoacetate] the “inhibitory by” value [1] was 75%, the activity at 960 µM [1] was 75% and the activity at 1890 µM [1] was 25%.

With `[N-]=[N+]=[N-].[Na+]` [NaN3] the “Relative activity (%)” value [1, 8] was 91.7% and the “Relative activity (%)” value [1, 9] was 112.5%.

With `OC[C@H]1O[C@@](CO)(O[C@H]2O[C@H](CO)[C@@H](O)[C@H](O)[C@H]2O)[C@@H](O)[C@@H]1O` [Sucrose] the activity at 100000 µM [2, 10] was 0%.

`OC[C@@H](O)[C@@H](O)[C@@H](O)CO` [D-Adonitol] showed an activity at 100000 µM [2, 10] of 66.6%.

For `O=C(O)CN(CCN(CC(=O)O)CC(=O)O)CC(=O)O` [EDTA], the activity at 960 µM [1] was 96.7% and the activity at 1890 µM [1] was 100%.

In the case of `O.O.O.O.[Cl][Mn][Cl]` [MnCl2.4H2 O], the “Relative activity (%)” value [1, 6] is reported as 80% and the “Relative activity (%)” value [1, 7] is reported as 88%.

Work on `O=C(CO)[C@@H](O)[C@H](O)[C@H](O)CO` [D-Fructose] yielded an activity at 100000 µM [2, 10] of 0%.

With `O.O.O.O.O.O.O.O=[As]([O-])([O-])O.[Na+].[Na+]` [Na2 HAsO4.7H2 O] the “Relative activity (%)” value [1, 8] was 116.7% and the “Relative activity (%)” value [1, 9] was 120.0%.

For `O=S(=O)([O-])[O-].[Cu+2]` [CuSO4], the “Relative activity (%)” value [1, 6] was 0% and the “Relative activity (%)” value [1, 7] was 0%.

For `OC[C@@H](O)C(O)[C@H](O)CO` [D-Arabitol], the “oxidation by SLDH” value ([2]; substrate solutions 100 mM) is listed as “highly oxidized”, the activity at 100000 µM [2, 10] is listed as 175% and the “oxidation by the enzyme” value [4] is listed as “did not oxidize”.

With `CO` [Methanol] the activity at 100000 µM [2] was 0%.

`OC[C@@H](O)[C@H](O)[C@@H](O)CO` [D-Xylitol] gave an activity at 100000 µM [2, 10] of 0%.

With `O.O.O.O.O.O.[Cl-].[Cl-].[Mg+2]` [MgCl2.6H2 O] the “Relative activity (%)” value [1, 6] was 88% and the “Relative activity (%)” value [1, 7] was 92%.

For `[Cl][Ti]([Cl])([Cl])[Cl]` [TiCl4], the “Relative activity (%)” value [1, 6] was 96% and the “Relative activity (%)” value [1, 7] was 88%.

With `O=S(=O)([O-])[O-].O=S(=O)([O-])[O-].O=S(=O)([O-])[O-].[Fe+3].[Fe+3]` [Fe2 (SO4)3.xH2 O] the “Relative activity (%)” value [1, 6] was 0% and the “Relative activity (%)” value [1, 7] was 0%.

Molecule `OC[C@H]1OC(O)[C@H](O)[C@@H](O)[C@@H]1O` (stereo partly drawn) [D-Glucose] has an activity at 100000 µM [2] of 0%.

For `[Cu+2]` [Cu^2+], the “effect on SLDH activity” value [1] was “strongly inhibitory”.

For `O.O.O.O.O=[N+]([O-])[O-].O=[N+]([O-])[O-].[Ca+2]` [Ca(NO3)2.4H2 O], the “Relative activity (%)” value [1, 6] was 96% and the “Relative activity (%)” value [1, 7] was 96%.

Work on `CCO` [Ethanol] yielded an activity at 100000 µM [2] of 0%.

In the case of `[Fe+3]` [Fe^3+], the “effect on SLDH activity” value [1] is reported as “strongly inhibitory”.

With `O.O.O.O.O.O.O=S(=O)([O-])[O-].[Ni+2]` [NiSO4.6H2 O] the “Relative activity (%)” value [1, 6] was 88% and the “Relative activity (%)” value [1, 7] was 108%.

B1: D-sorbitol dehydrogenase (SLDH) (Gluconobacter thailandicus) (protein)
chain: GAGGEPSSSVPGPGNASEPTENSPKSQSYFAGPSPYAPQAPGVNAANLPDIESIDPSQVPAMAPQQSANPARGDWVAYGRDDHQTRYSPLSEITPENASKLKVAFVYHTGSYPRPGQVNKWAAETTPIKVGDGLYTCSAMNDIIKLDPATGKQIWRRNVDVKYHSIPYTAACKGVTYFTSSVVPEGQPCHNRLIEGTLDMRLIAVDAETGDFCPNFGHGGQVNLMQGLGESVPGFVSMTAPPPVINGVVVVNHEVLDGQRRWAPSGVIRGYDAESGKFVWAWDVNNSDDHSQPTGNRHYSRGTPNSWATMTGDNEEGLVYVPTGNSAADYYSALRSDAENKVSSAVVAIDVKTGSPRWVFQTAHKDVWDYDIGSQATLMDMPGPDGQTVPALIMPTKRGQTFVLDRRTGKPILPVEERPAPSPGVIPGDPRSPTQPWSVGMPALRVPDLKETDMWGMSPIDQLFCRIKFRRANYVGEFTPPSVDKPWIEYPGYNGGSDWGSMSYDPQSGILIANWNITPMYDQLVTRKKADSLGLMPIDDPNFKPGGGGAEGNGAMDGTPYGIVVTPFWDQYTGMMCNRPPYGMITAIDMKHGQKVLWQHPLGTARANGPWGLPTGLPWEIGTPNNGGSVVTGGGLIFIGAATDNQIRAIDEHTGKVVWSAVLPGGGQANPMTYEANGHQYVAIMAGGHHFMMTPVSDQLVVYALPDAIKQ
notes: The SLDH was isolated from the membrane fraction of Gluconobacter suboxydans IFO 3255 (DSM 9715); made in house; host or cells: Gluconobacter suboxydans IFO 3255 (DSM 9715), native source (not recombinant): purified from the solubilized membrane fraction
Molecule B1 has a Km [5] of 18 mM.
